Results on 15 compounds are retold here after patent publication EP0106486A2, “Improvements in or relating to novel octahydrobenz(f)isoquinolines” (ELI LILLY AND COMPANY, priority 1982, dated 1984).

Where a name gives a salt, the structure may show the parent alone. Read-outs that look alike come from different tables or passages of the source.

The test system of this assay is Cox standard strain albino male mice. The assay can be described thus: mouse writhing assay (acetic acid-induced writhing). Format: in vivo. The conditions noted are these: dose required to inhibit induced writhing by fifty percent, 5 mice per group. From the text:
The analgesic activity of a number of compounds provided by this invention has been determined in the standard rat-tail jerk assay and the mouse writhing assay. Writhing, characterized by contraction of the abdominal musculature, extension of the hind- legs, and rotation of the trunk, was induced in Cox standard strain albino male mice. The mice, weighing 18-24 grams, were fasted overnight and given the test compound by gavage in an acacia suspension (5%) sixty minutes before writhing was induced by the intraperitoneal administration of acetic acid (0.60 percent). Each treatment group consisted of 5 mice. The total number of writhes for the treatment group was determined during a 10-minute observation starting 5 minutes after acetic acid administration. […] The results in the mouse writhing assay are presented as the effective dose in mg./kg. of the tested compound required to inhibit induced writhing in the test animals by fifty percent (ED50). Results are presented in Column II for both subcutaneous (s.c.) and oral (p.o.) administration of the test compound as compared to the reference compound meperidine.
(Writhing tests count abdominal constrictions after an irritant is injected.)

Where [1] appears, read: 1 h, oral (p.o.) administration, acacia suspension (5%), sixty minutes before i.p. acetic acid (0.60 percent), read-out: Mouse Writhing ED50 p.o.
Setting [2] is: sc, subcutaneous (s.c.) administration, writhing induced by i.p. acetic acid (0.60 percent), read-out: Mouse Writhing ED50 s.c.

Usually ED50 stands for the dose at which the effect has come halfway, by size or by number of responders. Consider `CCC[C@]12CCN(C)C[C@H]1CCc1ccc(OC)cc12.Cl` (relative stereo) [Example 2, cis-1,2,3,4,4a,5,6,10b-octahydro-3-methyl-9-methoxy-10b-propylbenz[f]isoquinoline hydrochloride], for which the ED50 was 11 mg/kg under setting [1] and 10 mg/kg under setting [2].

As to `CN1CC[C@]2(C)c3cc(O)ccc3CC[C@@H]2C1` (relative stereo) [Example 3, cis-1,2,3,4,4a,5,6,10b-octahydro-3,10b-di-methylbenz[f]isoquinolin-9-ol], the ED50 by setting is: under setting [1], 7.2 mg/kg; under setting [2], 2.3 mg/kg.

In the case of `CCC[C@]12CCNC[C@H]1CCc1ccc(OC)cc12.Cl` (relative stereo) [Example 6, cis-1,2,3,4,4a,5,6,10b-octahydro-9-methoxy-10b-propylbenz[f]isoquinoline hydrochloride], the ED50 is more than 80 mg/kg under setting [1] and more than 80 mg/kg under setting [2].

In the case of `C=CCN1CC[C@]2(C)c3cc(O)ccc3CC[C@@H]2C1` (relative stereo) [Example 8, cis-1,2,3,4,4a,5,6,10b-octahydro-3-(2-propenyl)-10b-methylbenz[f]isoquinolin-9-ol], the ED50 under setting [1] is more than 80 mg/kg and the ED50 under setting [2] came out at 15 mg/kg.

`C[C@]12CCN(CC3CC3)C[C@H]1CCc1ccc(O)cc12` (relative stereo) [Example 9, cis-1,2,3,4,4a,5,6,10b-octahydro-3-(cyclopropylmethyl)-10b-methylbenz[f]isoquinolin-9-ol]: the ED50 under setting [1] is more than 80 mg/kg and the ED50 under setting [2] was determined as 32 mg/kg.

Regarding `C[C@@]12CCN(CCc3ccccc3)C[C@@H]1CCc1ccc(O)cc12` (relative stereo) [Example 10, cis-1,2,3,4,4a,5,6,10b-octahydro-3-(2-phenylethyl)-10b-methylbenz[f]isoquinolin-9-ol], the ED50 is, setting by setting: under setting [1], 38.2 mg/kg; under setting [2], 5.2 mg/kg.

Take `CCC[C@]12CCNC[C@H]1CCc1ccc(O)cc12` (relative stereo) [Example 11, cis-1,2,3,4,4a,5,6,10b-octahydro-10b-propylbenz[f]isoquinolin-9-ol]: the ED50 reads like this: under setting [1], more than 80 mg/kg; under setting [2], 62 mg/kg.

Consider `C=CCN1CC[C@]2(CCC)c3cc(O)ccc3CC[C@@H]2C1` (relative stereo) [Example 12, cis-1,2,3,4,4a,5,6,10b-octahydro-3-(2-propenyl)-10b-propylbenz[f]isoquinolin-9-ol], for which the ED50 under setting [1] turned out to be 45 mg/kg and the ED50 under setting [2] was determined as 12 mg/kg.

In the case of `CCC[C@]12CCN(CC3CC3)C[C@H]1CCc1ccc(O)cc12` (relative stereo) [Example 13, cis-1,2,3,4,4a,5,6,10b-octahydro-3-cyclopropylmethyl-10b-propylbenz[f]isoquinolin-9-ol], the ED50 under setting [1] stood at 73 mg/kg and the ED50 under setting [2] was 34 mg/kg.

For the compound `CCC[C@]12CCN(CCc3ccccc3)C[C@H]1CCc1ccc(O)cc12` (relative stereo) [Example 14, cis-1,2,3,4,4a,5,6,10b-octahydro-3-(2-phenylethyl)-10b-propylbenz[f]isoquinolin-9-ol], the ED50 reads like this: under setting [1], more than 80 mg/kg; under setting [2], 78 mg/kg.

Turning to `COc1ccc2c(c1)[C@]1(C)CCN(C)C[C@@H]1CC2` [Example 1, cis-1,2,3,4,4a,5,6,lOb-octahydro-3,lOb-dimethyl-9-methoxybenz[f]isoquinoline hydrochloride], the ED50 under setting [1] stood at 15 mg/kg and the 50% effective dose (ED50) under setting [2] came to 10 mg/kg.

Consider `CCC[C@@]12CCN(C)C[C@@H]1CCc1ccc(O)cc12` [Example 4, cis-1,2,3,4,4a,5,6,1Ob-octahydro-3-methyl-10b-propylbenz[f]isoquinolin-9-ol hydrochloride], for which the ED50 runs as follows: under setting [1], 13 mg/kg; under setting [2], 4.5 mg/kg.

As for `COc1ccc2c(c1)[C@]1(C)CCNC[C@@H]1CC2` [Example 5, cis-1,2,3,4,4a,5,6,10b-octahydro-9-methoxy-LOb-methylbenz[f]isoquinoline hydrochloride], the ED50 was 80 mg/kg under setting [1] and 62 mg/kg under setting [2].

For the compound `C[C@@]12CCNC[C@@H]1CCc1ccc(O)cc12` [Example 7, cis-l,2,3,4,4a,5,6,10b-octahydro-10b-methylbenz[f]isoquinolin-9-ol], the 50% effective dose (ED50) is more than 80 mg/kg under setting [1] and 80 mg/kg under setting [2].

As for `CCOC(=O)C1(c2ccccc2)CCN(C)CC1` [Meperidine, reference compound], the ED50 under setting [1] came out at 21 mg/kg and the ED50 under setting [2] is 2.8 mg/kg.
